Test results from ChEMBL document CHEMBL1201862, “PubChem BioAssay data set” (2004).
Calls of active or inactive are those of the source.

Assays:
Assay type in all cases: functional
[1] = biological target: T1, Serine/threonine-protein kinase PLK4 (Homo sapiens, UniProt O00444);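 note: PLK4 measured as one member of a kinome-wide kinase profiling panel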
T1 sequence (O00444 whole entry): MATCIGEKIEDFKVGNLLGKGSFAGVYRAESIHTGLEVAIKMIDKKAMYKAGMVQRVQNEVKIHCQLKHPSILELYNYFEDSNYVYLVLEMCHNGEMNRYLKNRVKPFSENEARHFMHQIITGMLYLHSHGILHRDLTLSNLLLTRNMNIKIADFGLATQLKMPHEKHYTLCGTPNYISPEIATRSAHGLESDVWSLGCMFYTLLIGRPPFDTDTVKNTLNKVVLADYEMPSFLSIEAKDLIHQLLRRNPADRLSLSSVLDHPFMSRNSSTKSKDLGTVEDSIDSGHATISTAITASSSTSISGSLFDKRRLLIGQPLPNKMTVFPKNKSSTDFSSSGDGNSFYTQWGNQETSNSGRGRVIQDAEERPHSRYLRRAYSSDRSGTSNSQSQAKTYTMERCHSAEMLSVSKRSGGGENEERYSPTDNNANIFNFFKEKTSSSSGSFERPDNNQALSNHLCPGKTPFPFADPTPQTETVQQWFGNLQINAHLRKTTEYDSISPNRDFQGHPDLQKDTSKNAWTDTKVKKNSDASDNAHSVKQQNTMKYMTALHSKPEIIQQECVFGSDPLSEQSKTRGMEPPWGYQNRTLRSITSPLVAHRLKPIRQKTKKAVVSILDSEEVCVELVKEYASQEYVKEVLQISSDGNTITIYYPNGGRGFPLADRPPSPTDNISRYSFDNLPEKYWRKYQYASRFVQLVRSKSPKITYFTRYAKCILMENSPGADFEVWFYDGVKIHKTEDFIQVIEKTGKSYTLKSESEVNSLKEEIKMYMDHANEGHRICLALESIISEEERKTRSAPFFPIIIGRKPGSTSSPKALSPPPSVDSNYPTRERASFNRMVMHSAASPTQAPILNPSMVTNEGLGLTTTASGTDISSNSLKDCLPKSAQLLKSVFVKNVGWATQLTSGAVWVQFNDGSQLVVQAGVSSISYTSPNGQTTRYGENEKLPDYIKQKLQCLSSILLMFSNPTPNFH

[2] = biological target: T2, Tyrosine-protein kinase receptor TYRO3 (Homo sapiens, UniProt Q06418);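 note: TYRO3 value obtained as one member of a kinome-wide profiling panel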
T2 sequence (Q06418 whole entry): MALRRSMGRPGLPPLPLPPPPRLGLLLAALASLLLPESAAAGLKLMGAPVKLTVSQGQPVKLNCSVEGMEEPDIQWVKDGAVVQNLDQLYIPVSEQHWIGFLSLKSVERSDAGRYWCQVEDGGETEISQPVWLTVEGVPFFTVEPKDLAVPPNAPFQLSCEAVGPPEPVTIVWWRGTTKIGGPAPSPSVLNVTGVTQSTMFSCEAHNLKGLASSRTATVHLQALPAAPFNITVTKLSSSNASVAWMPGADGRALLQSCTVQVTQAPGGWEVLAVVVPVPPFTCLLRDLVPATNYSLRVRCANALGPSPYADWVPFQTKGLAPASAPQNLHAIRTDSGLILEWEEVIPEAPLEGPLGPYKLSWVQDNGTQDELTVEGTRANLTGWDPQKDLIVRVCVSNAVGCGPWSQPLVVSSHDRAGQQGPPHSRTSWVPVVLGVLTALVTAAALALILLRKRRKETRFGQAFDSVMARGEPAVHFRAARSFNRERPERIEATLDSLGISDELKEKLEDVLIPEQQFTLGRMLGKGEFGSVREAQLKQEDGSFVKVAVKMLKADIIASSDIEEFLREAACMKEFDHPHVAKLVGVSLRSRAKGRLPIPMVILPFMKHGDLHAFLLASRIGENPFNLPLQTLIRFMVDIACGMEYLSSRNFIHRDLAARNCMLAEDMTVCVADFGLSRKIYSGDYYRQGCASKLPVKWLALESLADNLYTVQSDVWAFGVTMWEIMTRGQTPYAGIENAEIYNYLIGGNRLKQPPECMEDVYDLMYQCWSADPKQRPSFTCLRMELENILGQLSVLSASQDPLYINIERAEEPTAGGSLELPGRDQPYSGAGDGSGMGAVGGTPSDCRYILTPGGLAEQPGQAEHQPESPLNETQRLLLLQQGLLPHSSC

[3] = biological target: MAP/microtubule affinity-regulating kinase 3 (Homo sapiens, UniProt P27448);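 note: MARK3 affinity measured as one member of a kinome panel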
Chain of MAP/microtubule affinity-regulating kinase 3 (P27448 whole entry): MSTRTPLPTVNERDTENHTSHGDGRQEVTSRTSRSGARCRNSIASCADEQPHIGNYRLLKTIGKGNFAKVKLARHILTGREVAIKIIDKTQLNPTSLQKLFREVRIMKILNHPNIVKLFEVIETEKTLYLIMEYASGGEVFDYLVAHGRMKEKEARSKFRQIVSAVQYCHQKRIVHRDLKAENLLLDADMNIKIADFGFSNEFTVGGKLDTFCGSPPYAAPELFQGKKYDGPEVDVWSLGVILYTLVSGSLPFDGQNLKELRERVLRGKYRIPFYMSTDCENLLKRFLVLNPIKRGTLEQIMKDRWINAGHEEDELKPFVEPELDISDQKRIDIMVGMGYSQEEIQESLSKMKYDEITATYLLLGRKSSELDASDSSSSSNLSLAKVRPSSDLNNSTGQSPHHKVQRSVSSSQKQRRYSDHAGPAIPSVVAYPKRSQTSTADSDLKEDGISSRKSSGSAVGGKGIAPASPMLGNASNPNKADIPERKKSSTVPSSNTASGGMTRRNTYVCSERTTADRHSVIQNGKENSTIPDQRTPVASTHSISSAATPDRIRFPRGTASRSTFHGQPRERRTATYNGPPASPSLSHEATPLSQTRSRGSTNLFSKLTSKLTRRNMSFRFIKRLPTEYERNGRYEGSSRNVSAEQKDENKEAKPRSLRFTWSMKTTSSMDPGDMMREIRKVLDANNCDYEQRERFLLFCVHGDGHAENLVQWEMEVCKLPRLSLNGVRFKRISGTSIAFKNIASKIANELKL

[4] = biological target: Non-receptor tyrosine-protein kinase TYK2 (Homo sapiens, UniProt P29597)
Chain of Non-receptor tyrosine-protein kinase TYK2 (P29597 whole entry): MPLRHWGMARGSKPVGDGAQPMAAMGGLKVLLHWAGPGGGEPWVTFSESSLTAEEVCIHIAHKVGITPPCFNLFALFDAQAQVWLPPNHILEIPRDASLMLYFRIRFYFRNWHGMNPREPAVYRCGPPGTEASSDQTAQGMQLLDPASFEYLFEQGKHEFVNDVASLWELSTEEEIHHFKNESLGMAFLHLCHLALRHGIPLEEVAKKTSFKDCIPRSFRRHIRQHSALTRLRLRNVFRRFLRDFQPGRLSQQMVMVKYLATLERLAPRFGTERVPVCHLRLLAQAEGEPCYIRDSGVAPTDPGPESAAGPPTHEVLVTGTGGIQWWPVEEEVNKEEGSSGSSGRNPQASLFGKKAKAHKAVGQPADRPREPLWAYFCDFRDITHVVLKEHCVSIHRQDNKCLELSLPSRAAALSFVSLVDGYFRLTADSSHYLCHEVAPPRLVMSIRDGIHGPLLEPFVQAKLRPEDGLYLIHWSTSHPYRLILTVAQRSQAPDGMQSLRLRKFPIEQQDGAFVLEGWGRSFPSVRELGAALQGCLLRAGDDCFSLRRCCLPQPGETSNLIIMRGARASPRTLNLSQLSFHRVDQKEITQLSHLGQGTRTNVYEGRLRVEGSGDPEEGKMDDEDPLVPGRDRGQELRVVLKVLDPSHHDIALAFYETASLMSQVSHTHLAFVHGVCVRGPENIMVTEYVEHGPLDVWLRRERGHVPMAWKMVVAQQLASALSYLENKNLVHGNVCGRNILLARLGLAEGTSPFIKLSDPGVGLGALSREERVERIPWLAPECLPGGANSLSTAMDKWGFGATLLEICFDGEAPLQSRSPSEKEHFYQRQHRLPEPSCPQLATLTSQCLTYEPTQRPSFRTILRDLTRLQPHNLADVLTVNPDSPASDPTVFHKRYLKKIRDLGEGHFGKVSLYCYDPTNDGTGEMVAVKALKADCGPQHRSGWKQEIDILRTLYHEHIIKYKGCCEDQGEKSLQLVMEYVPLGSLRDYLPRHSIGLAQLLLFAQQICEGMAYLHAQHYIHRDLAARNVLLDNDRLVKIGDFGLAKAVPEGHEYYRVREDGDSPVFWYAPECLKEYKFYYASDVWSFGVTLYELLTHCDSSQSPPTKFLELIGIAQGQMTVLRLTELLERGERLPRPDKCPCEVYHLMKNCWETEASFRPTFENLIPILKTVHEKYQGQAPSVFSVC

[5] = biological target: T3, Mitogen-activated protein kinase kinase kinase kinase 2 (Homo sapiens, UniProt Q12851);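 note: measured as one member of a kinome-wide kinase panel, with MAP4K2 as the panel entry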
T3 sequence (Q12851 whole entry): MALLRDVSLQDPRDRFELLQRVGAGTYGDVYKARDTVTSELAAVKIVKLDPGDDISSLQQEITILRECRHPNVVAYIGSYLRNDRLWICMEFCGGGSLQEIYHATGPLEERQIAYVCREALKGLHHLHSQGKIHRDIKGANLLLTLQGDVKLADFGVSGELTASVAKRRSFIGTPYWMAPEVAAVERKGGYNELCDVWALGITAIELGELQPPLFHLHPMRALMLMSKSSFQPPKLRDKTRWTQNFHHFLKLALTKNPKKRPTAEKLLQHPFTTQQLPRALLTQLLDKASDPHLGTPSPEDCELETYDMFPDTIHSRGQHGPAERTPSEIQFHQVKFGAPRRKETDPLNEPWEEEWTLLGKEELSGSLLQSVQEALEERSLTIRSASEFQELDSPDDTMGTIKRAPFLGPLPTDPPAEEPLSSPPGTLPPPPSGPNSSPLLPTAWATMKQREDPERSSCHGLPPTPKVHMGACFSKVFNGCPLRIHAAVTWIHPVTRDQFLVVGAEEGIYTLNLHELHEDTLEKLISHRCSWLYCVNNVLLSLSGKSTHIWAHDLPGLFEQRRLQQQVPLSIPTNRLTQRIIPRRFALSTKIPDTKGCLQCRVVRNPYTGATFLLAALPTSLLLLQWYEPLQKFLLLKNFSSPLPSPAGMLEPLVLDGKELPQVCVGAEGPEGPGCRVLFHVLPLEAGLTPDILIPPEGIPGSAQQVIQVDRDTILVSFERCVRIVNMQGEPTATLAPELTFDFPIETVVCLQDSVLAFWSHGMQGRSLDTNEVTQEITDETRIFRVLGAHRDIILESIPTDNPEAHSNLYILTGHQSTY

[6] = biological target: Casein kinase I isoform delta (Homo sapiens, UniProt P48730);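 note: measured as one member (CSNK1D) of a kinome panel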
Chain of Casein kinase I isoform delta (P48730 whole entry, canonical isoform): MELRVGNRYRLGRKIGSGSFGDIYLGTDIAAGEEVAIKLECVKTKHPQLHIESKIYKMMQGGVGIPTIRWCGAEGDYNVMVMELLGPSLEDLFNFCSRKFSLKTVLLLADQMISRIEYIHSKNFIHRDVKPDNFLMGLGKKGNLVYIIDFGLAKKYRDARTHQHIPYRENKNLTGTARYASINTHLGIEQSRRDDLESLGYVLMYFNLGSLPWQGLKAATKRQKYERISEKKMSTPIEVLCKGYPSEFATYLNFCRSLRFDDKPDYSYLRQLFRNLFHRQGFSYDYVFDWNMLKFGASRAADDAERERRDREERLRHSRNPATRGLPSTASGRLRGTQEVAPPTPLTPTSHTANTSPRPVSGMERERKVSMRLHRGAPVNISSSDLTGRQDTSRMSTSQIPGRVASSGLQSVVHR

Aurora kinase B = Aurora kinase B (Homo sapiens, UniProt Q96GD4)
Chain of Aurora kinase B (Q96GD4 whole entry): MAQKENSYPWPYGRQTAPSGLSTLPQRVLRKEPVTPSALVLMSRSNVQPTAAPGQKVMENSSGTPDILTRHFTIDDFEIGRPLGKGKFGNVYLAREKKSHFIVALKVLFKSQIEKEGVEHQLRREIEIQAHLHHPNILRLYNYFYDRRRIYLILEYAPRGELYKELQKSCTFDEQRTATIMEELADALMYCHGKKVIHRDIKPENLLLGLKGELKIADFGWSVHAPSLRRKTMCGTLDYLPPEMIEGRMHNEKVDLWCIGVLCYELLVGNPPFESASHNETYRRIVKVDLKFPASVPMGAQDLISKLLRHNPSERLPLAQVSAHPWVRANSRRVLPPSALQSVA

[7] = biological target: Calcium/calmodulin-dependent protein kinase type 1 (Homo sapiens, UniProt Q14012)
Chain of Calcium/calmodulin-dependent protein kinase type 1 (Q14012 whole entry): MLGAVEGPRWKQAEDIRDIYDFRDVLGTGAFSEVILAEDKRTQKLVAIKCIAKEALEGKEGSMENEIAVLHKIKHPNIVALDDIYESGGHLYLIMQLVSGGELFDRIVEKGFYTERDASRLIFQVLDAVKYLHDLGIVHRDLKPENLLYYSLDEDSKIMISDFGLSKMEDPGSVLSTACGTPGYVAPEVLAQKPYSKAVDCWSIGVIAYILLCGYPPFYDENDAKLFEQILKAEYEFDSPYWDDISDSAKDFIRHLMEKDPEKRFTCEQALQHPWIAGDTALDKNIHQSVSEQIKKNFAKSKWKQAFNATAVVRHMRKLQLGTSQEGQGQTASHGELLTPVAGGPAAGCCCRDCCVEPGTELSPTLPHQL

[8] = biological target: cAMP-dependent protein kinase catalytic subunit alpha (Homo sapiens, UniProt P17612)

Row | Compound | Ki [1] | pKi [1] | Ki [2] | Ki [3] | pKi [3] | Ki [4] | Ki [5] | pKi [5] | Ki [6] | pKi [6] | Ki (Aurora kinase B) | pKi (Aurora kinase B) | Ki [7] | Ki [8] | pKi [8]
1 | NC(=O)c1cc(-c2ccnc(N)n2)[nH]c1-c1ccc(Cl)cc1Cl | 501 nM (active) | 6.3 | > 2000 nM (inactive) | 501 nM (active) | 6.3 | 794 nM (active) | 200 nM (active) | 6.7 | 15.8 nM (active) | 7.8 | 631 nM (active) | 6.2 | > 3980 nM (inactive) | 398 nM (active) | 6.4
2 | NC(COc1cncc(-c2ccc3c(c2)C(=Cc2ccco2)C(=O)N3)c1)Cc1c[nH]c2ccccc12 (stereo not drawn) | 200 nM (active) | – | > 2000 nM (inactive) | 39.8 nM (active) | – | > 2000 nM (inactive) | 39.8 nM (active) | – | 398 nM (active) | – | 200 nM (active) | – | 1260 nM (active) | 12.6 nM (active) | –
3 | Cc1ccc(-n2nc(C(C)(C)C)cc2NC(=O)Nc2ccc(OCCN3CCOCC3)c3ccccc23)cc1 [DORAMAPIMOD] | > 3980 nM (inactive) | – | 2000 nM (active) | > 5010 nM (inactive) | – | > 2000 nM (inactive) | > 2510 nM (inactive) | – | > 7940 nM (inactive) | – | > 5010 nM (inactive) | – | > 7940 nM (inactive) | > 2000 nM (inactive) | –
